Assay results taken from publication PMC12409781 (RSC Advances, 2025).

Columns and labels:
Experiment in all cases: Cell viability assay
Format in all cases: cell-based
KPC = conditions: 72 h, read-out: IC50 KPC
Panc-1 = conditions: Homo sapiens, PANC-1, 72 h, read-out: IC50 Panc-1, 72 hours, CCK-8
MIA PaCa-2 = conditions: Homo sapiens, MIA PaCa-2, 72 h, read-out: IC50 MIA PaCa-2

- IC50 (Panc-1): 11.6 ± 0.56 µM
- IC50 (MIA PaCa-2): 7.83 ± 0.28 µM
SMILES: Nc1ccn([C@@H]2O[C@H](CO)[C@@H](O)C2(F)F)c(=O)n1 [Gemcitabine]
- IC50 (KPC): 5.36 ± 0.25 µM
